Experimental data: patent publication US9840532B2, “5′-substituted nucleoside compounds” (Eli Lilly and Company, priority 2015, dated 2017)

Legend:
PRMT5/MEP50 complex = biological target: T1, PRMT5/MEP50 complex (Homo sapiens, UniProt O14744); assay: PRMT5/MEP50 SPA Assay; type: biochemical; conditions: Mean ± SEM
T1 construct: FLAG; made in house; host or cells: baculovirus/Sf9 insect cells
From the text: The purpose of this assay is to measure the ability of a test compound to inhibit the enzyme activity of PRMT5 in vitro by inhibiting the catalytic activity of PRMT5/MEP50 complex, indicated by the transfer of radiolabeled methyl-^3H to a substrate peptide derived from the N-terminal sequence of the human histone H4.
Express the PRMT5/MEP50 enzyme complex using a baculovirus/Sf9 system and purify using anti-FLAG affinity chromatography, (essentially as described in preparations by Stephen Antonysamy, Zahid Bonday, Robert M. Campbell, Brandon Doyle, Zhanna Druzina, Tarun Gheyi, Bomie Han, Louis N. Jungheim, Yuewei Qian, Charles Rauch, Marijane Russell, J. Michael Sauder, Stephen R. Wasserman, Kenneth Weichert, Francis S. Willard, Aiping Zhang, and Spencer Emtage; Crystal structure of the human PRMT5:MEP50 complex, Proceedings of the National Academy of Sciences, 2012, Volume 109, pages 17960-17965.) Dilute purified enzyme to a working stock of 6.67 nM in assay buffer (50 mM TRIZMA® preset pH ˜8.5, 1 mM DTT, 0.005% TWEEN® 80 0.01% HSA).
Add enzyme (15 μL/well) to a 384-well assay plate (CORNING® cat. #3706). Add test compounds from a 10 mM DMSO stock solution to the plate as serial dilutions in assay buffer to achieve a final test concentrations ranging from 50.0 μM to 25 nM. Create a reaction mix containing 1 μM Histone H4 biotinylated peptide substrate, H-[…]-biotin (SEQ ID NO: 1), prepared by FastMoc chemistry with an ABI 431 peptide, and 4 μM ^3H-SAM; 15 Ci/mmol, 0.366 mCi/mL, 37 μM, PERKIN-ELMER® cat. # NET155000MC) in assay buffer. To each plate well, add 5 μL of the peptide/^3H-SAM reaction mix to yield final assay conditions of 5 nM enzyme, 1 ^3H-SAM, 250 nM peptide and 50 μM maximum test compound concentration with 0.5% DMSO, at a final volume of 20 μL. Incubate the assay for 2 hr at room temperature. Stop the reaction with the addition of guanidine HCl (5 M, 20 μL, Sigma cat. # G3272).
Suspend strepavidin YSI SPA scintillation beads (PERKIN-ELMER®, #RPNQ0012) at 1 mg/mL in pH ˜8.5 Tris buffer containing 5 M guanidine HCl. To each well, add 20 μL of this bead suspension, agitate the resulting mixtures, and incubate for 1 hr at room temperature prior to measuring their radioactivity, using a microplate liquid scintillation counter as an indication of the formation of methylated peptide product.
Generate raw data from the radioactivity measurement as counts per min (CPM). Employ an uninhibited control (DMSO) and maximum inhibited control (250 μM dehydrosinefungin, (isolated essentially as described in Berry, D. R. & Abbott, B. J. Incorporation of carbon-14-labeled compounds into sinefungin (A9145), a nucleoside antifungal antibiotic. J. Antibiot. 1978 (31) 185-191 and references cited therein)). […]

A375 cells = assay: Protocol Proliferation 7-day (CELL TITER-GLO); type: cell-based; conditions: Homo sapiens, A-375, 168 h, 7 days, Mean ± SEM
Protocol: The purpose of this assay is to measure the ability of test compounds to inhibit proliferation of cancer cells.
On day 1, plate A375 cells (ATCC, DMEM high glucose/10% Hi FBS) at 250 cells/well (100 μL/well) in a 96-well assay plate (BD Falcon 35-3219). Incubate the plates in a 37° C. incubator (5% CO2) for 18-24 hr. On day 2, prepare and serially dilute test compounds in medium (1:2 10-point serial dilution) from compound stock solutions (10 mM in 100% DMSO). Add 10 μL of serial diluted test compounds to cell plates (0.2% DMSO final concentration). Add 10 μL of reference compound (Example 1) to column 1 of cell plates (20 μM final, 0.2% DMSO). Incubate cell plates at 37° C./5% CO2 for 7 days. On day nine, thaw the CELL TITER-GLO® (Promega #G7571) buffer and equilibrate to room temperature prior to use. Also, equilibrate the lyophilized CELL TITER-GLO® substrate to room temperature prior to use. Transfer CELL TITER-GLO® buffer to an amber substrate bottle to reconstitute the lyophilized enzyme/substrate mixture to form the CELL TITER-GLO® reagent. Equilibrate the cell plate(s) to room temperature for […] Gently remove media in cell plates by flicking and blotting on a stack of paper towels. Add CELL TITER-GLO® reagent (25 μL) to each well. Incubate plates for […] at room temperature before reading. Measure luminescence using PERKIN-ELMER® ENVISION® Multi-label Plate Reader. Analyze this luminescence data by a 4-parameter curve fit using Activity Base, to yield cell proliferation IC50 values.

T1 sequence (O14744 whole entry): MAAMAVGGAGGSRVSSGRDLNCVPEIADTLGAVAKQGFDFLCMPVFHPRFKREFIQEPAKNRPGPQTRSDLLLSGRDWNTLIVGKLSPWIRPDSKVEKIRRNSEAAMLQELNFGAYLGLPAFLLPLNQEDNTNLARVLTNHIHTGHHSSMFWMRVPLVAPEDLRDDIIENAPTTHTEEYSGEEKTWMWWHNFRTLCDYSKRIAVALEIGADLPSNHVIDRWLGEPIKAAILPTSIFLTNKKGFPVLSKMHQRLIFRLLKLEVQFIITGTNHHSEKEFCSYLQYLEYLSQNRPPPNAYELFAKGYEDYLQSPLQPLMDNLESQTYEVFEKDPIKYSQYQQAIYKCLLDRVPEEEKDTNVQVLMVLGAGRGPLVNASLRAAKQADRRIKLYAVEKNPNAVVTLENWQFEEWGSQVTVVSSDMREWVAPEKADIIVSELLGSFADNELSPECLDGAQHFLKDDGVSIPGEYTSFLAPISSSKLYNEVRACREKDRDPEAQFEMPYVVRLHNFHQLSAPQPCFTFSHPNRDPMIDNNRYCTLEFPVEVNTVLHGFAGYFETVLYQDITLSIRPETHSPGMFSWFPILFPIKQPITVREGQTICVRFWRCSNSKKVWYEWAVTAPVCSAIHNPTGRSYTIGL
T1 sequence (Q9BQA1 whole entry partner): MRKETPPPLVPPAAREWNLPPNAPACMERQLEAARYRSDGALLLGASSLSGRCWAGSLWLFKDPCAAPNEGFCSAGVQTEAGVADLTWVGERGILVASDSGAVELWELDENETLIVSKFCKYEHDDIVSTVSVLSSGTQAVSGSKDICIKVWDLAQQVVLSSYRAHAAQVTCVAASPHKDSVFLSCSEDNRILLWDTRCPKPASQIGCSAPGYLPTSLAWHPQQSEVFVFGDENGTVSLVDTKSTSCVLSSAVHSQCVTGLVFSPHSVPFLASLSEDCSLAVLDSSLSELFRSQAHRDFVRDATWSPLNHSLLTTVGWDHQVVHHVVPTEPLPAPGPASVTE

SMILES | IC50 (PRMT5/MEP50 complex) | IC50 (A375 cells)
Nc1ncnc2c1ccn2[C@@H]1O[C@H]([C@H](O)c2ccc(Cl)cc2)[C@@H](O)[C@H]1O [Example 1, (2R,3R,4S,5R)-2-(4-Aminopyrrolo[2,3-d]pyrimidin-7-yl)-5-[(R)-(4-chlorophenyl)-hydroxy-methyl]tetrahydrofuran-3,4-diol] | 4.27 nM | 10.8 nM
Nc1ncnc2c1ccn2[C@@H]1O[C@H]([C@H](O)c2ccccc2)[C@@H](O)[C@H]1O [Example 2, (2R,3R,4S,5R)-2-(4-Aminopyrrolo[2,3-d]pyrimidin-7-yl)-5[(R)-hydroxy(phenyl)methyl]tetrahydrofuran-3,4-diol] | 9.51 nM | 31.5 nM
C[C@@](O)(c1ccc(Cl)cc1)[C@H]1O[C@@H](n2ccc3c(N)ncnc32)[C@H](O)[C@@H]1O [Example 3, (2R,3R,4S,5S)-2-(4-Aminopyrrolo[2,3-d]pyrimidin-7-yl)-5-[(1R)-1-(4-chlorophenyl)-1-hydroxy-ethyl]tetrahydrofuran-3,4-diol] | 5.23 nM | 44 nM
